Where a name gives a salt, the structure may show the parent alone. Read-outs that look alike come from different tables or passages of the source.
What was measured:
Assay in all cases: AK assay 384-well format, Prestwick library screening
E. faecium = format: cell-based, Enterococcus faecium; conditions: 50 μM final drug concentration; for fold induction at 50 µM: Enterococcus faecium, 3 h
[1] = tested on: S. aureus strain USA300-0114; format: cell-based, Staphylococcus aureus; conditions: 50 μM final drug concentration; for fold induction at 50 µM: Staphylococcus aureus, USA300, 3 h
K. pneumoniae = format: cell-based, Klebsiella pneumoniae; conditions: 50 μM final drug concentration; for fold induction at 50 µM: Klebsiella pneumoniae, 3 h
[2] = tested on: A. baumannii strain 98-37-09; format: cell-based, Acinetobacter baumannii; conditions: 50 μM final drug concentration; for fold induction at 50 µM: Acinetobacter baumannii, 983709, 3 h
P. aeruginosa = format: cell-based, Pseudomonas aeruginosa; conditions: 50 μM final drug concentration; for fold induction at 50 µM: Pseudomonas aeruginosa, 3 h
E. cloacae = format: cell-based, Enterobacter cloacae; conditions: 50 μM final drug concentration; for fold induction at 50 µM: Enterobacter cloacae, 3 h
E. coli = format: cell-based, Escherichia coli; conditions: 50 μM final drug concentration; for fold induction at 50 µM: Escherichia coli, 3 h
[3] = planktonic, […], read-out: AK-based Prestwick Library Screening Results, E. faecium (fold increase in extracellular AK activity)
[4] = planktonic, […], read-out: AK-based Prestwick Library Screening Results, S. aureus (fold increase in extracellular AK activity)
[5] = planktonic, […], read-out: AK-based Prestwick Library Screening Results, K. pneumoniae (fold increase in extracellular AK activity)
[6] = planktonic, […], read-out: AK-based Prestwick Library Screening Results, A. baumannii (fold increase in extracellular AK activity)
[7] = planktonic, […], read-out: AK-based Prestwick Library Screening Results, P. aeruginosa (fold increase in extracellular AK activity)
[8] = planktonic, […], read-out: AK-based Prestwick Library Screening Results, E. cloacae (fold increase in extracellular AK activity)
[9] = planktonic, […], read-out: AK-based Prestwick Library Screening Results, E. coli (fold increase in extracellular AK activity)
[10] = 384-well format, cutoff for positive-scoring molecules 3-fold increase, read-out: AK-based Prestwick Library Screening Results, E. faecium (increase in extracellular AK activity)
[11] = 384-well format, cutoff for positive-scoring molecules 3-fold increase, read-out: AK-based Prestwick Library Screening Results, S. aureus (increase in extracellular AK activity)
[12] = 384-well format, cutoff for positive-scoring molecules 3-fold increase, read-out: AK-based Prestwick Library Screening Results, K. pneumoniae (increase in extracellular AK activity)
[13] = 384-well format, cutoff for positive-scoring molecules 3-fold increase, read-out: AK-based Prestwick Library Screening Results, A. baumannii (increase in extracellular AK activity)
[14] = 384-well format, cutoff for positive-scoring molecules 3-fold increase, read-out: AK-based Prestwick Library Screening Results, P. aeruginosa (increase in extracellular AK activity)
[15] = 384-well format, cutoff for positive-scoring molecules 3-fold increase, read-out: AK-based Prestwick Library Screening Results, E. cloacae (increase in extracellular AK activity)
[16] = 384-well format, cutoff for positive-scoring molecules 3-fold increase, read-out: AK-based Prestwick Library Screening Results, E. coli (increase in extracellular AK activity)
[17] = cutoff for positive-scoring molecules 3-fold increase
[18] = 384-well format, cutoff for positive-scoring molecules 3-fold increase
[19] = planktonic E. faecium, positive cutoff 3-fold increase, read-out: AK-based Prestwick library screening result, E. faecium (fold increase in extracellular AK activity)
[20] = planktonic S. aureus, positive cutoff 3-fold increase, read-out: AK-based Prestwick library screening result, S. aureus (fold increase in extracellular AK activity)
[21] = planktonic K. pneumoniae, positive cutoff 3-fold increase, read-out: AK-based Prestwick library screening result, K. pneumoniae (fold increase in extracellular AK activity)
[22] = planktonic A. baumannii, positive cutoff 3-fold increase, read-out: AK-based Prestwick library screening result, A. baumannii (fold increase in extracellular AK activity)
[23] = planktonic P. aeruginosa, positive cutoff 3-fold increase, read-out: AK-based Prestwick library screening result, P. aeruginosa (fold increase in extracellular AK activity)
[24] = planktonic E. cloacae, positive cutoff 3-fold increase, read-out: AK-based Prestwick library screening result, E. cloacae (fold increase in extracellular AK activity)
[25] = planktonic E. coli, positive cutoff 3-fold increase, read-out: AK-based Prestwick library screening result, E. coli (fold increase in extracellular AK activity)

## O=C1C(O)=C([C@H]2CC[C@H](c3ccc(Cl)cc3)CC2)C(=O)c2ccccc21 [Atovaquone]
E. faecium; planktonic, cutoff for positive 3-fold increase, read-out: AK-based Prestwick Library Screening Results, E. faecium (fold increase in extracellular AK activity)
  fold induction at 50 µM: 1
[1]; planktonic, cutoff for positive 3-fold increase, read-out: AK-based Prestwick Library Screening Results, S. aureus (fold increase in extracellular AK activity)
  fold induction at 50 µM: 1.2
K. pneumoniae; planktonic, cutoff for positive 3-fold increase, read-out: AK-based Prestwick Library Screening Results, K. pneumoniae (fold increase in extracellular AK activity)
  fold induction at 50 µM: 0.8
[2]; planktonic, cutoff for positive 3-fold increase, read-out: AK-based Prestwick Library Screening Results, A. baumannii (fold increase in extracellular AK activity)
  fold induction at 50 µM: 1.2
P. aeruginosa; planktonic, cutoff for positive 3-fold increase, read-out: AK-based Prestwick Library Screening Results, P. aeruginosa (fold increase in extracellular AK activity)
  fold induction at 50 µM: 1
E. cloacae; planktonic, cutoff for positive 3-fold increase, read-out: AK-based Prestwick Library Screening Results, E. cloacae (fold increase in extracellular AK activity)
  fold induction at 50 µM: 1.4
E. coli; planktonic, cutoff for positive 3-fold increase, read-out: AK-based Prestwick Library Screening Results, E. coli (fold increase in extracellular AK activity)
  fold induction at 50 µM: 1.1

## C=C1[C@@H]2CC[C@H]3[C@]4(C)C[C@H](O[C@@H]5O[C@H](CO)[C@@H](OS(=O)(=O)O)[C@H](OS(=O)(=O)O)[C@H]5OC(=O)CC(C)C)C[C@@H](C(=O)O)[C@H]4CC[C@]3(C2)[C@@H]1O [Atractyloside potassium salt]
E. faecium; [3]
  fold induction at 50 µM: 0.9
[1]; [4]
  fold induction at 50 µM: 0.7
K. pneumoniae; [5]
  fold induction at 50 µM: 0.6
[2]; [6]
  fold induction at 50 µM: 0.8
P. aeruginosa; [7]
  fold induction at 50 µM: 0.6
E. cloacae; [8]
  fold induction at 50 µM: 0.8
E. coli; [9]
  fold induction at 50 µM: 0.7

## COc1ccc(CC2c3cc(OC)c(OC)cc3CC[N+]2(C)CCC(=O)OCCCCCOC(=O)CC[N+]2(C)CCc3cc(OC)c(OC)cc3C2Cc2ccc(OC)c(OC)c2)cc1OC (centres unmarked) [Atracurium besylate]
E. faecium; [10]
  fold induction at 50 µM: 0.8
[1]; [11]
  fold induction at 50 µM: 0.5
K. pneumoniae; [12]
  fold induction at 50 µM: 0.5
[2]; [13]
  fold induction at 50 µM: 0.4
P. aeruginosa; [14]
  fold induction at 50 µM: 0.4
E. cloacae; [15]
  fold induction at 50 µM: 0.3
E. coli; [16]
  fold induction at 50 µM: 0.5

## CC1=CC(=O)C2=C(C)C[C@H](O)[C@@H]3[C@H](OC(=O)[C@H]3C)[C@H]12 [Austricine hydrate]
E. faecium; [3]
  fold induction at 50 µM: 1.1
[1]; [4]
  fold induction at 50 µM: 1.2
K. pneumoniae; [5]
  fold induction at 50 µM: 1
[2]; [6]
  fold induction at 50 µM: 1
P. aeruginosa; [7]
  fold induction at 50 µM: 1.1
E. cloacae; [8]
  fold induction at 50 µM: 1.3
E. coli; [9]
  fold induction at 50 µM: 1.2

## OC(c1ccccc1)(c1ccccc1)C1CCNCC1 [Azacyclonol]
E. faecium; 384-well format, […], read-out: AK-based Prestwick Library Screening Results, E. faecium (increase in extracellular AK activity)
  fold induction at 50 µM: 0.9
[1]; 384-well format, […], read-out: AK-based Prestwick Library Screening Results, S. aureus (increase in extracellular AK activity)
  fold induction at 50 µM: 0.7
K. pneumoniae; 384-well format, […], read-out: AK-based Prestwick Library Screening Results, K. pneumoniae (increase in extracellular AK activity)
  fold induction at 50 µM: 0.6
[2]; 384-well format, […], read-out: AK-based Prestwick Library Screening Results, A. baumannii (increase in extracellular AK activity)
  fold induction at 50 µM: 0.6
P. aeruginosa; 384-well format, […], read-out: AK-based Prestwick Library Screening Results, P. aeruginosa (increase in extracellular AK activity)
  fold induction at 50 µM: 0.6
E. cloacae; 384-well format, […], read-out: AK-based Prestwick Library Screening Results, E. cloacae (increase in extracellular AK activity)
  fold induction at 50 µM: 0.9
E. coli; 384-well format, […], read-out: AK-based Prestwick Library Screening Results, E. coli (increase in extracellular AK activity)
  fold induction at 50 µM: 0.6

## Nc1ncn([C@@H]2O[C@H](CO)[C@@H](O)[C@H]2O)c(=O)n1 [Azacytidine-5]
E. faecium; [17]
  AK-based Prestwick Library Screening Results, E. faecium (fold increase in extracellular AK activity): 1.0
[1]; [17]
  AK-based Prestwick Library Screening Results, S. aureus (fold increase in extracellular AK activity): 1.2
K. pneumoniae; [17]
  AK-based Prestwick Library Screening Results, K. pneumoniae (fold increase in extracellular AK activity): 0.9
[2]; [17]
  AK-based Prestwick Library Screening Results, A. baumannii (fold increase in extracellular AK activity): 1.4
P. aeruginosa; [17]
  AK-based Prestwick Library Screening Results, P. aeruginosa (fold increase in extracellular AK activity): 1.2
E. cloacae; [17]
  AK-based Prestwick Library Screening Results, E. cloacae (fold increase in extracellular AK activity): 1.5
E. coli; [17]
  AK-based Prestwick Library Screening Results, E. coli (fold increase in extracellular AK activity): 2.2

## Nc1nc(O)c2[nH]nnc2n1 [Azaguanine-8]
E. faecium; [18]
  AK-based Prestwick Library Screening Results, E. faecium (increase in extracellular AK activity): 0.8
[1]; [18]
  AK-based Prestwick Library Screening Results, S. aureus (increase in extracellular AK activity): 0.6
K. pneumoniae; [18]
  AK-based Prestwick Library Screening Results, K. pneumoniae (increase in extracellular AK activity): 0.3
[2]; [18]
  AK-based Prestwick Library Screening Results, A. baumannii (increase in extracellular AK activity): 0.3
P. aeruginosa; [18]
  AK-based Prestwick Library Screening Results, P. aeruginosa (increase in extracellular AK activity): 0.3
E. cloacae; [18]
  AK-based Prestwick Library Screening Results, E. cloacae (increase in extracellular AK activity): 0.3
E. coli; [18]
  AK-based Prestwick Library Screening Results, E. coli (increase in extracellular AK activity): 0.4

## O=C(CCCN1CCN(c2ccccn2)CC1)c1ccc(F)cc1 [Azaperone]
E. faecium; [19]
  fold induction at 50 µM: 1
[1]; [20]
  fold induction at 50 µM: 1.2
K. pneumoniae; [21]
  fold induction at 50 µM: 1
[2]; [22]
  fold induction at 50 µM: 1.2
P. aeruginosa; [23]
  fold induction at 50 µM: 1
E. cloacae; [24]
  fold induction at 50 µM: 1.9
E. coli; [25]
  fold induction at 50 µM: 1.1

## CCCC1C(=O)N2C(N(C)C)=Nc3ccc(C)cc3N2C1=O (centres unmarked) [Azapropazone]
E. faecium; [19]
  fold induction at 50 µM: 1
[1]; [20]
  fold induction at 50 µM: 0.8
K. pneumoniae; [21]
  fold induction at 50 µM: 0.9
[2]; [22]
  fold induction at 50 µM: 0.9
P. aeruginosa; [23]
  fold induction at 50 µM: 1
E. cloacae; [24]
  fold induction at 50 µM: 1.5
E. coli; [25]
  fold induction at 50 µM: 1.1

## Cn1cnc([N+](=O)[O-])c1Sc1ncnc2nc[nH]c12 [Azathioprine]
E. faecium; [10]
  fold induction at 50 µM: 0.8
[1]; [11]
  fold induction at 50 µM: 0.7
K. pneumoniae; [12]
  fold induction at 50 µM: 0.5
[2]; [13]
  fold induction at 50 µM: 0.7
P. aeruginosa; [14]
  fold induction at 50 µM: 0.6
E. cloacae; [15]
  fold induction at 50 µM: 0.8
E. coli; [16]
  fold induction at 50 µM: 0.6

## Cc1n[nH]c(=O)[nH]c1=O [Azathymine, 6]
E. faecium; planktonic E. faecium, 384-well, cutoff for positive-scoring molecules 3-fold increase
  AK-based Prestwick Library Screening Results: E. faecium (increase in extracellular AK activity): 0.9
[1]; planktonic S. aureus, 384-well, cutoff for positive-scoring molecules 3-fold increase
  AK-based Prestwick Library Screening Results: S. aureus (increase in extracellular AK activity): 0.4
K. pneumoniae; planktonic K. pneumoniae, 384-well, cutoff for positive-scoring molecules 3-fold increase
  AK-based Prestwick Library Screening Results: K. pneumoniae (increase in extracellular AK activity): 0.5
[2]; planktonic A. baumannii, 384-well, cutoff for positive-scoring molecules 3-fold increase
  AK-based Prestwick Library Screening Results: A. baumannii (increase in extracellular AK activity): 0.5
P. aeruginosa; planktonic P. aeruginosa, 384-well, cutoff for positive-scoring molecules 3-fold increase
  AK-based Prestwick Library Screening Results: P. aeruginosa (increase in extracellular AK activity): 0.6
E. cloacae; planktonic E. cloacae, 384-well, cutoff for positive-scoring molecules 3-fold increase
  AK-based Prestwick Library Screening Results: E. cloacae (increase in extracellular AK activity): 0.6
E. coli; planktonic E. coli, 384-well, […]
  AK-based Prestwick Library Screening Results: E. coli (increase in extracellular AK activity): 0.6

From patent US10004701B2, “Methods and compositions for treating infection” (UNIVERSITY OF ROCHESTER, priority 2012, dated 2018)
